# Legend:
# Penicillium decumbens [1] = assay: Inhibition of Penicillium decumbens alpha-L-rhamnosidase at 1000 uM using p-nitrophenyl-glycoside as substrate by spectrophotometric method
# Prunus dulcis = assay: Inhibition of almond beta-glucosidase at 1000 uM using p-nitrophenyl-glycoside as substrate by spectrophotometric method
# [2] = Inhibition of bovine liver beta-glucosidase using p-nitrophenyl-glycoside as substrate by spectrophotometric method; design: species or system Bos taurus
# Homo sapiens = species: Homo sapiens; assay: Inhibition of human lysosomal beta-glucosidase at 1000 uM using 4-methylumbelliferyl-beta-D-glucopyranoside as substrate preincubated for 45 mins followed by substrate addition measured after 30 mins by fluorescence spectrophotometric method
# Aspergillus niger = assay: Inhibition of Aspergillus niger amyloglucosidase assessed as D-glucose level at 1000 uM using maltose as substrate measured after 10 to 30 mins
# Beta-galactosidase = biological target: T1, Beta-galactosidase (Bos taurus, UniProt Q58D55); assay: Inhibition of bovine liver beta-galactosidase using p-nitrophenyl-glycoside as substrate by spectrophotometric method
# T1 sequence (Q58D55 whole entry): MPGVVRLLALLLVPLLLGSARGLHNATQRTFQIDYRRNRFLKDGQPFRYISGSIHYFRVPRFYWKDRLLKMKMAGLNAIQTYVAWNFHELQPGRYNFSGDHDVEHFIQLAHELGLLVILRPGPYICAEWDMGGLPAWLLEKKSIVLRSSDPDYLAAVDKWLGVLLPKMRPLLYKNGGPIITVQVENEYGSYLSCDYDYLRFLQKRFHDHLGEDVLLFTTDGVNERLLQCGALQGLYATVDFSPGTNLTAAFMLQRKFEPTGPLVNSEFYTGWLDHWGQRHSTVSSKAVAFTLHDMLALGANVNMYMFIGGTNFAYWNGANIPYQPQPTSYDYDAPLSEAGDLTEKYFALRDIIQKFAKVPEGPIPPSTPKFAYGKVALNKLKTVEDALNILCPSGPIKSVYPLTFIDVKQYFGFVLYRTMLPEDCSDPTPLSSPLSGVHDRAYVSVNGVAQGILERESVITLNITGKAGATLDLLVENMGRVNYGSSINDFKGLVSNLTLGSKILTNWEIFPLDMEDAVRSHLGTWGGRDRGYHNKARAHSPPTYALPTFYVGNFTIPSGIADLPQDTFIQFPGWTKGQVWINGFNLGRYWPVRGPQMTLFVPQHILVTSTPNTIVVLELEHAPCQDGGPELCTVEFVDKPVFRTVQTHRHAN
# [3] = biological target: T2, Tissue alpha-L-fucosidase (Bos taurus) (UniProt Q2KIM0); assay: Inhibition of bovine kidney alpha-L-fucosidase at 1000 uM using p-nitrophenyl-glycoside as substrate by spectrophotometric method
# T2 sequence (whole entry): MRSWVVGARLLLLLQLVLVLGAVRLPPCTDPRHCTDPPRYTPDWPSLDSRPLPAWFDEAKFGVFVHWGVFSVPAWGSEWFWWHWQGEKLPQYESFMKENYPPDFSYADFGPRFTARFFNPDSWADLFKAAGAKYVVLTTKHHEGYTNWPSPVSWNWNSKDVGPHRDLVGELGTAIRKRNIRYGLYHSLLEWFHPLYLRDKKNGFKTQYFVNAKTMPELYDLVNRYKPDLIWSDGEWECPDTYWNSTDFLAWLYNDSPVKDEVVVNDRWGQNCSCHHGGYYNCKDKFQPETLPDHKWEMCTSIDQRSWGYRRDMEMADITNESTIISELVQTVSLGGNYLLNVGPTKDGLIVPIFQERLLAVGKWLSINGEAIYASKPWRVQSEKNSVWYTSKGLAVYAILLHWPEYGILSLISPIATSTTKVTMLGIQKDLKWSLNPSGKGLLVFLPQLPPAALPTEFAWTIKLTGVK
# [4] = biological target: T3, Uncharacterized protein (Sus scrofa) (UniProt I3LIR5); assay: Inhibition of porcine kidney trehalase assessed as D-glucose level at 1000 uM using maltose as substrate measured after 10 to 30 mins
# T3 sequence (whole entry): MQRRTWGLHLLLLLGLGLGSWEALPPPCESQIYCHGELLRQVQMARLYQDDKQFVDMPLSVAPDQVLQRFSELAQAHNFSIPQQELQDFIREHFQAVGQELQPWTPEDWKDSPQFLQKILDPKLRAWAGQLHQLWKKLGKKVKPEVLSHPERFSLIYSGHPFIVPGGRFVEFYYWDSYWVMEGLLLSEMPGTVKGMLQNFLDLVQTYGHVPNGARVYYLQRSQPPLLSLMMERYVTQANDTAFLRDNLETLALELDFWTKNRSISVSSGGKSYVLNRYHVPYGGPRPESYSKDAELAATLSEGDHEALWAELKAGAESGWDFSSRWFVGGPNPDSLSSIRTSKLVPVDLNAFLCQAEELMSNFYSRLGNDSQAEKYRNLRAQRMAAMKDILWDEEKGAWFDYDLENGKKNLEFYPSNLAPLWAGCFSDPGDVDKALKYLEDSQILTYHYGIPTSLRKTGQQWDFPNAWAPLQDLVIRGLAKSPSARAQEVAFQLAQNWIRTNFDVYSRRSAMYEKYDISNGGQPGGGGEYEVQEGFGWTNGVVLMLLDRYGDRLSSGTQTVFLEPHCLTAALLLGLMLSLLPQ
# Escherichia coli [5] = assay: Inhibition of Escherichia coli beta-glucuronidase at 1000 uM using p-nitrophenyl-glycoside as substrate by spectrophotometric method
# [6] = Inhibition of rice alpha-glucosidase using p-nitrophenyl-glycoside as substrate by spectrophotometric method; design: species or system Oryza sativa
# [7] = Inhibition of maltase in rat small intestinal brush border membranes assessed as D-glucose level using maltose as substrate measured after 10 to 30 mins
# Saccharomyces cerevisiae = assay: Inhibition of yeast alpha-glucosidase at 1000 uM using p-nitrophenyl-glycoside as substrate by spectrophotometric method
# [8] = Inhibition of human lysosomal beta-glucosidase using 4-methylumbelliferyl-beta-D-glucopyranoside as substrate preincubated for 45 mins followed by substrate addition measured after 30 mins by fluorescence spectrophotometric method
# Coffea = assay: Inhibition of coffee bean alpha-galactosidase at 1000 uM using p-nitrophenyl-glycoside as substrate by spectrophotometric method
# Escherichia coli [9] = assay: Inhibition of Escherichia coli beta-galactosidase at 1000 uM using p-nitrophenyl-glycoside as substrate by spectrophotometric method
# [10] = biological target: T4, Alpha-mannosidase (Canavalia ensiformis) (UniProt C0HJB3); assay: Inhibition of Jack bean alpha-mannosidase at 1000 uM preincubated for 45 mins followed by addition of p-nitrophenyl-glycoside as substrate measured after 30 mins by fluorescence spectrophometry
# T4 sequence (whole entry): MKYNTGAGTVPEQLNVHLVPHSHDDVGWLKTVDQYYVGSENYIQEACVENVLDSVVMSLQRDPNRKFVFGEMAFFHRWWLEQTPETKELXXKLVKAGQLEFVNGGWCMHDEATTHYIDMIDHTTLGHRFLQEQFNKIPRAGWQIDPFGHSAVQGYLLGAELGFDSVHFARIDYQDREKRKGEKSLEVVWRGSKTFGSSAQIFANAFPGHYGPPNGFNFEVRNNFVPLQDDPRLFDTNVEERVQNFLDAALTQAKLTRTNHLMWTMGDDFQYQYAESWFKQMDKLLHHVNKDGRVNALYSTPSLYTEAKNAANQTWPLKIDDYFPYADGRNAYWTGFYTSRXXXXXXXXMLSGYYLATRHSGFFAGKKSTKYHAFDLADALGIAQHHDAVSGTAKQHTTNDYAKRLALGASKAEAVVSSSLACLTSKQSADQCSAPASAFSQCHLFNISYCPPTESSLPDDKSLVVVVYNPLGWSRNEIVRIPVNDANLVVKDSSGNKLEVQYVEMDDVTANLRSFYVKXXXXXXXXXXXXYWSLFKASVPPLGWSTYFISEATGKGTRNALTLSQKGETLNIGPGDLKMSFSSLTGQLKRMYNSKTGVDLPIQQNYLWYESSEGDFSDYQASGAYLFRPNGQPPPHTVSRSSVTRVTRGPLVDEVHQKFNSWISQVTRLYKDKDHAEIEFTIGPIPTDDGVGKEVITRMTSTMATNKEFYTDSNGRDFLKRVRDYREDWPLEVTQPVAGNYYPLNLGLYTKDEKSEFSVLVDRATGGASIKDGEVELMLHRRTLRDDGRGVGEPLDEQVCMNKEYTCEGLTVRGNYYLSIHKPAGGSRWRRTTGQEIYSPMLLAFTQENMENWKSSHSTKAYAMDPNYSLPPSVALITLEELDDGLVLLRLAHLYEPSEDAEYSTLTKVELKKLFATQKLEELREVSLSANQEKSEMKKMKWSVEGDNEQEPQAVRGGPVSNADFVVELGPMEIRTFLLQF
# Helix pomatia = assay: Inhibition of Helix pomatia beta-mannosidase at 1000 uM using p-nitrophenyl-glycoside as substrate by spectrophotometric method
# Oryza sativa = assay: Inhibition of rice alpha-glucosidase at 1000 uM using p-nitrophenyl-glycoside as substrate by spectrophotometric method
# Rattus norvegicus = species: Rattus norvegicus; assay: Inhibition of rat intestinal maltase assessed as D-glucose level at 1000 uM using maltose as substrate measured after 10 to 30 mins
# [11] = biological target: T5, Beta-galactosidase (Bos taurus) (UniProt Q58D55); assay: Inhibition of bovine liver beta-galactosidase at 1000 uM using p-nitrophenyl-glycoside as substrate by spectrophotometric method
# T5 sequence (whole entry): T1 sequence (Q58D55 whole entry)
# [12] = Inhibition of Penicillium decumbens alpha-L-rhamnosidase using p-nitrophenyl-glycoside as substrate by spectrophotometric method
# [13] = Competitive inhibition of Penicillium decumbens alpha-L-rhamnosidase using p-nitrophenyl-glycoside as substrate by Lineweaver-Burk plot analysis
# Penicillium decumbens [14] = assay: Potency index, ratio of 5-epi-deoxyrhamnojirimycin IC50 to compound IC50 for Penicillium decumbens alpha-L-rhamnosidase
# [15] = Inhibition of Penicillium decumbens alpha-L-rhamnosidase assessed as reduction in hydrolysis of p-nitrophenyl-a-L-rhamnopyranoside
# Bos taurus = species: Bos taurus; assay: Inhibition of bovine liver beta-glucosidase at 1000 uM using p-nitrophenyl-glycoside as substrate by spectrophotometric method
SMILES,inhibition (Penicillium decumbens [1]) [%],inhibition (Prunus dulcis) [%],IC50 [2] [µM],inhibition (Homo sapiens) [%],inhibition (Aspergillus niger) [%],IC50 (Beta-galactosidase) [µM],inhibition [3] [%],inhibition [4] [%],inhibition (Escherichia coli [5]) [%],IC50 [6] [µM],IC50 [7] [µM],IC50 [12] [nM],IC50 [15] [µM],other results
CCCCNC(=S)N1[C@@H](CO)[C@H](O)[C@@H](O)[C@@H]1CO,< 50,< 50,939,< 50,< 50,473,< 50,< 50,< 50,741,1000,,,
CCCCCCCC/N=C1/SC[C@@H]2[C@@H](O)[C@H](O)[C@@H](CO)N12,< 50,< 50,63,,< 50,,< 50,< 50,< 50,,,,,inhibition (Saccharomyces cerevisiae): < 50%; IC50 [8]: 2400 nM; inhibition (Coffea): < 50%; inhibition (Escherichia coli [9]): < 50%; inhibition [10]: < 50%; inhibition (Helix pomatia): < 50%; inhibition (Oryza sativa): < 50%; inhibition (Rattus norvegicus): < 50%; inhibition [11]: < 50%
OC[C@H]1[C@H](O)[C@@H](O)[C@@H]2CS/C(=N/Cc3ccc(Cl)c(Cl)c3)N12,,,,,,,,,,,,230,,Ki [13]: 110 nM; Ratio IC50 (Penicillium decumbens [14]): 46
C[C@H](O)[C@H]1[C@@H](O)[C@@H](O)c2nnnn21,,,,,,,,,,,,,70,
O[C@@H]1[C@@H]2[C@@H](O)CCCN2C[C@@H]1O,,,,,,,,,,,,,0.3,
CCCCCC/N=C1/SC[C@H]2[C@H](O)[C@@H](O)[C@H](CO)N12,,< 50,,< 50,< 50,599,< 50,< 50,< 50,418,799,5300,,inhibition (Bos taurus): < 50%
